Data published in patent EP0811615A1, “1-Aryl-5-(substituted alkyl (thio) amido) pyrazoles and their use as pesticides” (RHONE-POULENC AGROCHIMIE, priority 1996, dated 1997).
Read-outs that look alike come from different tables or passages of the source.

Legend:
Type in all cases: in vivo
southern armyworm = assay: Southern armyworm foliar spray test on bean plants; conditions: Spodoptera eridania, 120 h, read-out: pest mortality SAW
Experimental: (§1) For mite, aphid, southern armyworm, Mexican bean beetle, and tobacco budworm tests, a solution or suspension was prepared by adding 10 mg of the test compound to a solution of 160 mg of dimethylformamide, 838 mg of acetone, 2 mg of a 3:1 ratio of Triton X-172 : Triton X-152 (respectively, mainly anionic and nonionic low foam emulsifiers which are each anhydrous blends of alkylaryl polyether alcohols with organic sulfonates), and […] of water. The result was a concentration of 100 ppm of the test compound.
(§2) Southern armyworm: Potted bean plants, were placed on a revolving turntable and sprayed with 100 ml of the 100 ppm test compound formulation by use of a DeVilbiss spray gun set at 40 psig air pressure. As an untreated control, 100 ml of a water-acetone-DMF-emulsifier solution, containing no test compound, were also sprayed on plants. A treated control with a commercial technical compound, either cypermethrin or sulprofos, formulated in the same manner, was tested as a standard. When dry, the leaves were placed in plastic cups lined with moistened filter paper. Five randomly selected second instar southern armyworm larvae were introduced into each cup which was closed and held for five days. Larvae which were unable to move the length of the body, even upon stimulation by prodding, were considered dead.

Mexican bean beetle = Mexican bean beetle foliar spray test on bean plants; conditions: Epilachna varivestis, 120 h, read-out: pest mortality MBB
Experimental: as §1
as §2, with “Mexican bean beetle:” for “Southern armyworm:”, “plants” for “plants,”, “formulation, sufficient to wet the plants to runoff,” for “formulation”, “Mexican bean beetle” for “southern armyworm”

housefly = assay: House fly bait test; conditions: Musca domestica, read-out: pest mortality HF
Excerpt: For housefly tests, the formulation was initially prepared in a similar manner to the above, but in 16.3 g of water with corresponding adjustment of other components, providing a 200 ppm concentration. Final dilution with an equal volume of a 20% by weight aqueous solution of sucrose provided a 100 ppm concentration of the test compound. When necessary, sonication was provided to insure complete dispersion.
House fly: Four to six day old adult house flies were reared according to the specifications of the Chemical Specialties Manufacturing Association (Blue Book, McNair-Dorland Co., N.Y. 1954; pages 243-244, 261) under controlled conditions. The flies were immobilized by anesthetizing with carbon dioxide and twenty five immobilized individuals, males and females, were transferred to a cage consisting of a standard food strainer and a wrapping-paper-covered surface. Ten ml of the 100 ppm test compound formulation were added to a soufflé cup containing an absorbent cotton pad. As an untreated control, 10 ml of a water-acetone-DMF-emulsifier-sucrose solution, containing no test compound, were applied in a similar manner. A treated control with a commercial technical compound, malathion, formulated in the same manner, was tested as a standard. The bait cup was introduced inside the food strainer prior to admitting the anesthetized flies.

tobacco budworm = assay: Tobacco budworm foliar spray test on cotton plants; conditions: Heliothis virescens, 120 h, read-out: pest mortality TBW
Experimental: as §1
Tobacco budworm: Potted cotton plants were placed on a revolving turntable and sprayed with 100 ml of the 100 ppm test compound formulation by use of a DeVilbiss spray gun set at 40 psig air pressure. As an untreated control, 100 ml of a water-acetone-DMF-emulsifier solution, containing no test compound, were also sprayed on plants. A treated control with a commercial technical compound, either cypermethrin or sulprofos, formulated in the same manner, was tested as a standard. When dry, the leaves were placed in plastic dishes containing a piece of filter paper and a moistened dental wick. One randomly selected second instar tobacco budworm larva was then introduced into each cup which was closed and held for five days. Larvae unable to move the length of their body, even upon stimulation by prodding, were considered dead.

[1] = foliar application at 100 ppm, second instar larvae, held five days
[2] = bait application at 100 ppm, adult flies, after 24 hours

Row | Compound | mortality at 100 ppm (southern armyworm; [1]) | mortality at 100 ppm (housefly; [2]) | mortality at 100 ppm (tobacco budworm; [1]) | also measured
1 | CCOC(C)C(=O)Nc1c(SC(F)(Cl)Cl)c(C#N)nn1-c1c(Cl)cc(C(F)(F)F)cc1Cl (stereo not shown) [Compound 45] | 70 to 100% | 70 to 100% | 70 to 100% | mortality at 100 ppm (Mexican bean beetle; [1]): 70 to 100%
2 | COC(C(=O)Nc1c(SC(F)(Cl)Cl)c(C#N)nn1-c1c(Cl)cc(C(F)(F)F)cc1Cl)C(C)C (stereo not shown) [Compound 27] | 70 to 100% | – | 70 to 100% | –
3 | COC(C)(C)C(=O)Nc1c(SC(F)(Cl)Cl)c(C#N)nn1-c1c(Cl)cc(C(F)(F)F)cc1Cl [Compound 31] | 70 to 100% | – | 70 to 100% | –
4 | CC(C)COC(C)C(=O)Nc1c([S+]([O-])C(F)(F)F)c(C#N)nn1-c1c(Cl)cc(C(F)(F)F)cc1Cl (stereo not shown) [Compound 44] | 70 to 100% | 70 to 100% | – | mortality at 100 ppm (Mexican bean beetle; [1]): 70 to 100%
5 | CCC(OC)C(=O)Nc1c(SC(F)(F)F)c(C#N)nn1-c1c(Cl)cc(C(F)(F)F)cc1Cl (stereo not shown) [Compound 38] | 70 to 100% | 70 to 100% | 70 to 100% | –
6 | COCCOCC(=O)Nc1c(SC(F)(F)F)c(C#N)nn1-c1c(Cl)cc(C(F)(F)F)cc1Cl [Compound 3] | 70 to 100% | 70 to 100% | 70 to 100% | mortality at 100 ppm (Mexican bean beetle; [1]): 70 to 100%
7 | COC(C(=O)Nc1c([S+]([O-])C(F)(Cl)Cl)c(C#N)nn1-c1c(Cl)cc(C(F)(F)F)cc1Cl)C(C)C (stereo not shown) [Compound 29] | 70 to 100% | – | – | mortality at 100 ppm (Mexican bean beetle; [1]): 70 to 100%
8 | CCOCC(=O)Nc1c(SC(F)(Cl)Cl)c(C#N)nn1-c1c(Cl)cc(C(F)(F)F)cc1Cl [Compound 15] | 70 to 100% | 70 to 100% | 70 to 100% | –
9 | CCCCCCCCCCCCOCC(=O)Nc1c(SC(F)(F)F)c(C#N)nn1-c1c(Cl)cc(C(F)(F)F)cc1Cl [Compound 36] | – | 70 to 100% | – | –
10 | COCC(=O)Nc1c(SC(F)(Cl)Cl)c(C#N)nn1-c1c(Cl)cc(C(F)(F)F)cc1Cl [Compound 14] | 70 to 100% | 70 to 100% | 70 to 100% | –
11 | C#CCN(C(=O)COC)c1c(SC(F)(F)F)c(C#N)nn1-c1c(Cl)cc(OC(F)(F)F)cc1Cl [Compound 48] | 70 to 100% | 70 to 100% | 70 to 100% | –
12 | CCCC(OCC)C(=O)Nc1c(SC(F)(F)F)c(C#N)nn1-c1c(Cl)cc(C(F)(F)F)cc1Cl (stereo not shown) [Compound 41] | 70 to 100% | 70 to 100% | – | –
13 | COC(C(=O)Nc1c(SC(F)(F)F)c(C#N)nn1-c1c(Cl)cc(C(F)(F)F)cc1Cl)C(C)C (stereo not shown) [Compound 23] | 70 to 100% | – | 70 to 100% | –
14 | CC(C)COC(C)C(=O)Nc1c(SC(F)(F)F)c(C#N)nn1-c1c(Cl)cc(C(F)(F)F)cc1Cl (stereo not shown) [Compound 43] | 70 to 100% | 70 to 100% | 70 to 100% | –
15 | COCC(=O)Nc1c([N+](=O)[O-])c(Br)nn1-c1c(Cl)cc(C(F)(F)F)cc1Cl [Compound 49] | 70 to 100% | – | 70 to 100% | –
16 | CCCCOCC(=O)Nc1c(SC(F)(F)F)c(C#N)nn1-c1c(Cl)cc(C(F)(F)F)cc1Cl [Compound 6] | 70 to 100% | 70 to 100% | 70 to 100% | –
17 | COCCOCCOCC(=O)Nc1c(SC(F)(F)F)c(C#N)nn1-c1c(Cl)cc(C(F)(F)F)cc1Cl [Compound 4] | 70 to 100% | 70 to 100% | 70 to 100% | –
18 | COC(C)C(=O)Nc1c(SC(F)(Cl)Cl)c(C#N)nn1-c1c(Cl)cc(C(F)(F)F)cc1Cl (stereo not shown) [Compound 26] | 70 to 100% | 70 to 100% | 70 to 100% | –
19 | CCOC(CC)C(=O)Nc1c(SC(F)(F)F)c(C#N)nn1-c1c(Cl)cc(C(F)(F)F)cc1Cl (stereo not shown) [Compound 40] | 70 to 100% | 70 to 100% | – | –
20 | COCC(=O)Nc1c(SC(F)(F)F)c(C#N)nn1-c1c(Cl)cc(C(F)(F)F)cc1Cl [Compound 1, 1-(2,6-dichloro-4-trifluoromethylphenyl)-3-cyano-4-trifluoromethylsulfenyl-5-(methoxyacetamido)pyrazole] | – | – | – | mortality at 100 ppm (southern armyworm; foliar): 70 to 100%; mortality at 100 ppm (Mexican bean beetle; foliar): 70 to 100%; mortality at 100 ppm (housefly; 24 h): 70 to 100%; mortality at 100 ppm (tobacco budworm; foliar): 70 to 100%
21 | COCC(=O)Nc1c([S+]([O-])C(F)F)c(C#N)nn1-c1c(Cl)cc(C(F)(F)F)cc1Cl (stereo not shown) [Compound 19] | 70 to 100% | 70 to 100% | – | –
22 | CCCCCCOCC(=O)Nc1c(SC(F)(F)F)c(C#N)nn1-c1c(Cl)cc(C(F)(F)F)cc1Cl [Compound 33] | – | – | 70 to 100% | –
23 | COC(C)C(=O)Nc1c(SC(F)(F)F)c(C#N)nn1-c1c(Cl)cc(C(F)(F)F)cc1Cl (stereo not shown) [Compound 21] | 70 to 100% | 70 to 100% | 70 to 100% | –
24 | CC(C)COCC(=O)Nc1c(SC(F)(F)F)c(C#N)nn1-c1c(Cl)cc(C(F)(F)F)cc1Cl [Compound 35] | 70 to 100% | 70 to 100% | – | mortality at 100 ppm (Mexican bean beetle; [1]): 70 to 100%
25 | CCC(OC)C(=O)Nc1c(SC(F)(Cl)Cl)c(C#N)nn1-c1c(Cl)cc(C(F)(F)F)cc1Cl (stereo not shown) [Compound 37] | 70 to 100% | 70 to 100% | 70 to 100% | –
26 | COC(=O)CCC(=O)Nc1c(SC(F)(F)F)c(C#N)nn1-c1c(Cl)cc(C(F)(F)F)cc1Cl [Compound 5] | 70 to 100% | 70 to 100% | 70 to 100% | –
27 | CC(C)OCC(=O)Nc1c(SC(F)(F)F)c(C#N)nn1-c1c(Cl)cc(C(F)(F)F)cc1Cl [Compound 20] | 70 to 100% | 70 to 100% | 70 to 100% | mortality at 100 ppm (Mexican bean beetle; [1]): 70 to 100%
28 | COCCOCCOCC(=O)Nc1c([S+]([O-])C(F)(F)F)c(C#N)nn1-c1c(Cl)cc(C(F)(F)F)cc1Cl (stereo not shown) [Compound 10] | 70 to 100% | – | – | –
29 | COCCOCC(=O)Nc1c(SC(F)(Cl)Cl)c(C#N)nn1-c1c(Cl)cc(C(F)(F)F)cc1Cl [Compound 16] | 70 to 100% | 70 to 100% | 70 to 100% | –
30 | COC(C)(C)C(=O)Nc1c(SC(F)(F)F)c(C#N)nn1-c1c(Cl)cc(C(F)(F)F)cc1Cl [Compound 30] | 70 to 100% | – | 70 to 100% | –
